{"source": "ChEMBL document CHEMBL4376834", "about": "“Discovery of 4H-Chromen-4-one Derivatives as a New Class of Selective Rho Kinase (ROCK) Inhibitors, which Showed Potent Activity in ex Vivo Diabetic Retinopathy Models” (J Med Chem, 2019)", "key": {"[1]": {"target": "cGMP-dependent protein kinase 1 (Homo sapiens, UniProt Q13976)", "sequence (Q13976 whole entry)": "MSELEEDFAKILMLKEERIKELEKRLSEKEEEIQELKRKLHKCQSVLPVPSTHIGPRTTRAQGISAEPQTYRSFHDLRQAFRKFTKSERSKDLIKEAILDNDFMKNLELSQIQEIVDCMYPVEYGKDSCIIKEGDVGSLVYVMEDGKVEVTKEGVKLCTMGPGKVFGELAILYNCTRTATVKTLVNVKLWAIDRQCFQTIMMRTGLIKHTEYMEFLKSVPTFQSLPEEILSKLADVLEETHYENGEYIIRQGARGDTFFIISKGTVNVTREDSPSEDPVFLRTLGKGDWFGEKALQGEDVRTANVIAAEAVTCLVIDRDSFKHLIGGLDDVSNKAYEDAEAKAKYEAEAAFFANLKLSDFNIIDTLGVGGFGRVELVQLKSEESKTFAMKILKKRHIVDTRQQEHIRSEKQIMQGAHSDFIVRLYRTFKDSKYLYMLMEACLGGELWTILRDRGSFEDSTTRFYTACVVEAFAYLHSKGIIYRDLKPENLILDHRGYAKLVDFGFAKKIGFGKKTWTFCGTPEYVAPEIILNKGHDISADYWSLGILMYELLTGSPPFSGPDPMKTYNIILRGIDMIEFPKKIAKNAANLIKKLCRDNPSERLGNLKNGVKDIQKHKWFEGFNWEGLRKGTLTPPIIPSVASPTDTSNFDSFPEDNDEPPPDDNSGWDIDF", "assay": "Inhibition of recombinant full length human PKG1beta using RRRLSFAEPG as substrate incubated for 40 mins in presence of [gamma-33P]ATP by radiometric scintillation counting analysis"}, "CDK7/Cyclin H/MNAT1": {"target": "CDK7/Cyclin H/MNAT1 (Homo sapiens, UniProt P50613)", "assay": "Inhibition of recombinant full length human CDK7/cyclinH/MAT1 using peptide substrate incubated for 40 mins in presence of [gamma-33ATP] by radiometric scintillation counting analysis", "format": "protein-complex assay"}, "[2]": {"target": "Cyclin-dependent kinase 13/Cyclin-K (Homo sapiens, UniProt Q14004)", "assay": "Inhibition of recombinant full length human CDK13/cyclinK using RSRSRSRSRSRSR as substrate incubated for 120 mins in presence of [gamma-33ATP] by radiometric scintillation counting analysis", "format": "protein-complex assay"}, "[3]": {"target": "Casein kinase II subunit alpha (Homo sapiens, UniProt P68400)", "sequence (P68400 whole entry)": "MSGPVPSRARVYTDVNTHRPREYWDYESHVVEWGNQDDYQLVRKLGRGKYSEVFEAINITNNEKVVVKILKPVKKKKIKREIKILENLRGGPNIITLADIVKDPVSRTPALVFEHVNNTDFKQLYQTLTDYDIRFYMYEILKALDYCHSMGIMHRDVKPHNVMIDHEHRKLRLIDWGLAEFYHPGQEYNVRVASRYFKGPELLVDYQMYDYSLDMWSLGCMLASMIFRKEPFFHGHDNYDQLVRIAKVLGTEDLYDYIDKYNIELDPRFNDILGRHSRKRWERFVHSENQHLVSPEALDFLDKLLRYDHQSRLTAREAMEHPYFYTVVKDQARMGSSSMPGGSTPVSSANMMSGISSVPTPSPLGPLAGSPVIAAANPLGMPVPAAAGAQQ", "assay": "Inhibition of recombinant full length human CK2alpha1 using RRRDDDSDDD as substrate incubated 40 mins in presence of [gamma-33ATP] by radiometric scintillation counting analysis"}, "[4]": {"target": "Dual specificity protein kinase CLK2 (Homo sapiens, UniProt P49760)", "assay": "Inhibition of recombinant human CLK2 (138 to end residues) using YRRAAVPPSPSLSR as substrate incubated 40 mins in presence of [gamma-33ATP] by radiometric scintillation counting analysis"}, "[5]": {"target": "Death-associated protein kinase 1 (Homo sapiens, UniProt P53355)", "assay": "Inhibition of recombinant human DAPK1 (1 to 296 residues) using KKLNRTLSFAEPG as substrate incubated 40 mins in presence of [gamma-33ATP] by radiometric scintillation counting analysis"}, "[6]": {"target": "Dual specificity tyrosine-phosphorylation-regulated kinase 1A (Homo sapiens, UniProt Q13627)", "assay": "Inhibition of recombinant full length human DYRK1A using RRRFRPASPLRGPP as substrate after 40 mins in presence of [gamma-33ATP] by radiometric scintillation counting analysis"}, "[7]": {"target": "RAC-gamma serine/threonine-protein kinase (Homo sapiens, UniProt Q9Y243, S472D)", "assay": "Inhibition of recombinant human PKBgamma S472D mutant (117 to end residues) using GRPRTSSFAEGKK as substrate incubated for 40 mins in presence of [gamma33P]ATP by radiometric scintillation counting analysis"}, "[8]": {"target": "RAC-beta serine/threonine-protein kinase (Homo sapiens, UniProt P31751, S474D)", "assay": "Inhibition of recombinant human PKBbeta S474D mutant (120 to end residues) using GRPRTSSFAEGKK as substrate incubated for 40 mins in presence of [gamma33P]ATP by radiometric scintillation counting analysis"}, "[9]": {"target": "Serine/threonine-protein kinase 38-like (Homo sapiens, UniProt Q9Y2H1)", "assay": "Inhibition of recombinant human NDR2 (83 to end residues) using RSRSRSRSRSRSRSR as substrate measured after 40 mins in presence of [gamma33P]ATP by radiometric scintillation counting analysis"}, "[10]": {"target": "Serine/threonine-protein kinase 4 (Homo sapiens, UniProt Q13043)", "assay": "Inhibition of recombinant full-length human MST1 using KKSRGDYMTMQIG as substrate measured after 40 mins in presence of [gamma33P]ATP by radiometric scintillation counting analysis"}, "Misshapen-like kinase 1": {"target": "Misshapen-like kinase 1 (Homo sapiens, UniProt Q8N4C8)", "assay": "Inhibition of recombinant human MINK (1 to 310 residues) using myelin basic protein as substrate incubated for 40 mins in presence of [gamma-33ATP by radiometric scintillation counting analysis"}, "[11]": {"target": "Platelet-derived growth factor receptor alpha (Homo sapiens, UniProt P16234, D842V)", "sequence (P16234 24-1089 D842V limits assumed)": "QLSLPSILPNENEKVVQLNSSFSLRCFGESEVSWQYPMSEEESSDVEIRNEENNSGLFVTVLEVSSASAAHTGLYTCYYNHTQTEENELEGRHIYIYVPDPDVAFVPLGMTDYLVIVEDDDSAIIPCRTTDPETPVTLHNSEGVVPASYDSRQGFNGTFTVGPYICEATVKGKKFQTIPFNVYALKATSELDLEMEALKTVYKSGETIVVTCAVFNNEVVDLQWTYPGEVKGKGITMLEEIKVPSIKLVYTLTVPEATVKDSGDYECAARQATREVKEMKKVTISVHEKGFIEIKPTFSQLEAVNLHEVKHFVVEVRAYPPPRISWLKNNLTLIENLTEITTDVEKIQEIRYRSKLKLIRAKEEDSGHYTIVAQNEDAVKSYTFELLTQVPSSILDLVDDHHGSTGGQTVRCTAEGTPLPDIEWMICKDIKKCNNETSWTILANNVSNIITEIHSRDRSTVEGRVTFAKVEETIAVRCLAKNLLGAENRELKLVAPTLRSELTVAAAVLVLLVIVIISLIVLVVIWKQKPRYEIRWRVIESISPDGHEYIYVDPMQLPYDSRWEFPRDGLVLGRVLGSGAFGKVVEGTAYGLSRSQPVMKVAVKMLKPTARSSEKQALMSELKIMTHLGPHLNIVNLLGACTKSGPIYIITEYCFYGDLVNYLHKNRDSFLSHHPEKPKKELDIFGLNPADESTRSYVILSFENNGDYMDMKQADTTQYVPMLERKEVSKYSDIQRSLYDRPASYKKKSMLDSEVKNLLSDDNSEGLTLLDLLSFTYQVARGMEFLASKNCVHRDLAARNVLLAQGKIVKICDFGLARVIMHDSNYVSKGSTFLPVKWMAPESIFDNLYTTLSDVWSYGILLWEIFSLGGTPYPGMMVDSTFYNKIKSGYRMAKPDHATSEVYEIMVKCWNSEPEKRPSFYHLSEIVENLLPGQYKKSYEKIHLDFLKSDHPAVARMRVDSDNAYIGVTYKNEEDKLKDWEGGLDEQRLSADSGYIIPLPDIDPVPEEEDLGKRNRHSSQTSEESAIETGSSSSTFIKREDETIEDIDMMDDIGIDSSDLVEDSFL", "assay": "Inhibition of human PDGFRalpha D842V mutant (550 to end residues) using GGMEDIYFEFMGG as substrate measured after 40 mins in presence of [gamma33P]ATP by radiometric scintillation counting analysis"}, "[12]": {"target": "Fibroblast growth factor receptor 2 (Homo sapiens, UniProt P21802, N549H)", "assay": "Inhibition of recombinant human FGFR2 N549H mutant (456 to 765 residues) using GGEEEEYFELVKK as substrate after 40 mins in presence of [gamma-33ATP] by radiometric scintillation counting analysis"}, "[13]": {"target": "Vascular endothelial growth factor receptor 1 (Homo sapiens, UniProt P17948)", "assay": "Inhibition of recombinant human FLT1 (783 to end residues) using KKKSPGEYVNIEF as substrate after 40 mins in presence of [gamma-33ATP] by radiometric scintillation counting analysis"}, "[14]": {"target": "Homeodomain-interacting protein kinase 4 (Homo sapiens, UniProt Q8NE63)", "assay": "Inhibition of human recombinant full length HIPK4 using RRRFRPASPLRGP as substrate after 40 mins by [gamma-33ATP] radiometric assay"}, "[15]": {"target": "Mitogen-activated protein kinase 10 (Homo sapiens, UniProt P53779)", "sequence (P53779 whole entry)": "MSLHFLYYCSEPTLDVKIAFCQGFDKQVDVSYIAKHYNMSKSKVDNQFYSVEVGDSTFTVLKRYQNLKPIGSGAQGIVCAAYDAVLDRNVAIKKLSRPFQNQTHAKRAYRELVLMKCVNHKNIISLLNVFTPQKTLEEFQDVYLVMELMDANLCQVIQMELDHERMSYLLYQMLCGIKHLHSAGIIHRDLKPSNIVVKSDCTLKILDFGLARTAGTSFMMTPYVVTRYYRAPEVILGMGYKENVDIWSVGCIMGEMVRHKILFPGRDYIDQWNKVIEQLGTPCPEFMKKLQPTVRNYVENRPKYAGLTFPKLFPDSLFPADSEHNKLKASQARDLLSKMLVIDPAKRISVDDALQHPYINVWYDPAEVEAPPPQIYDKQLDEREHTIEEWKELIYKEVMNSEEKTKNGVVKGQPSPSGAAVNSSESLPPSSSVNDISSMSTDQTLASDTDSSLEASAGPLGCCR", "assay": "Inhibition of recombinant full length human JNK3 using peptide substrate after 40 mins by [gamma-33ATP] by radiometric scintillation counting analysis"}, "[16]": {"target": "Dual specificity mitogen-activated protein kinase kinase 2 (Homo sapiens, UniProt P36507)", "sequence (P36507 whole entry)": "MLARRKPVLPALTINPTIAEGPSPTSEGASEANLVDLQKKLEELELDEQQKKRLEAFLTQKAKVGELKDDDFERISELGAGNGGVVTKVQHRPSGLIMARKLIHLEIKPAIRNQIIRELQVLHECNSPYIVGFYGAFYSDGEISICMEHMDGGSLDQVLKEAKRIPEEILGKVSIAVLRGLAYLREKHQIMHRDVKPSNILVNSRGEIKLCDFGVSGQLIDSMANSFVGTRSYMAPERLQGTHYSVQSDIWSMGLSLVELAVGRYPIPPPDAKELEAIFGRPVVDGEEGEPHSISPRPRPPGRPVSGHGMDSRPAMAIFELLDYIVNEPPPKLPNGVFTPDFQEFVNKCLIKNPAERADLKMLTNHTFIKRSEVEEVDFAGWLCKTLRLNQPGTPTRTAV", "assay": "Inhibition of recombinant full length human MEK2 using MBP as substrate incubated for 40 mins in presence of [gamma-33ATP by radiometric scintillation counting analysis"}, "[17]": {"target": "Ribosomal protein S6 kinase alpha-1 (Homo sapiens, UniProt Q15418)", "assay": "Inhibition of recombinant full length human Rsk1 using KKKNRTLSVA as substrate incubated for 40 mins in presence of [gamma33P]ATP by radiometric scintillation counting analysis"}, "[18]": {"target": "Serine/threonine-protein kinase 16 (Homo sapiens, UniProt O75716)", "sequence (O75716 whole entry)": "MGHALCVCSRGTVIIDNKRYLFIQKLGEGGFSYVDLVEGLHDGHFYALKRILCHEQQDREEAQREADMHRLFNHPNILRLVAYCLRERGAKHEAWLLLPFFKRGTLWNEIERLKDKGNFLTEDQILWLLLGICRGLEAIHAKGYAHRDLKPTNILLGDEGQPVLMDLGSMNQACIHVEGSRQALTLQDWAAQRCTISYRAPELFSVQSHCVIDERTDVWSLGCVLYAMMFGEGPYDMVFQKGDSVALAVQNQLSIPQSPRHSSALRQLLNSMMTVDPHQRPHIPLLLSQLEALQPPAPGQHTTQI", "assay": "Inhibition of human STK16 in presence of 10 uM ATP by radiometric analysis"}, "[19]": {"target": "Serine/threonine-protein kinase TAO1 (Homo sapiens, UniProt Q7L7X3)", "assay": "Inhibition of recombinant human TAO1 (1 to 327 residues) using myelin basic protein as substrate incubated for 40 mins in presence of [gamma33P]ATP by radiometric scintillation counting analysis"}, "TGF-beta receptor type-1": {"target": "TGF-beta receptor type-1 (Homo sapiens, UniProt P36897, T204D)", "assay": "Inhibition of recombinant human TGFBR1 T204D mutant (200 to end residues) using casein as substrate incubated for 40 mins in presence of [gamma33P]ATP by radiometric scintillation counting analysis"}, "[20]": {"target": "Tyrosine-protein kinase TXK (Homo sapiens, UniProt P42681)", "sequence (P42681 whole entry)": "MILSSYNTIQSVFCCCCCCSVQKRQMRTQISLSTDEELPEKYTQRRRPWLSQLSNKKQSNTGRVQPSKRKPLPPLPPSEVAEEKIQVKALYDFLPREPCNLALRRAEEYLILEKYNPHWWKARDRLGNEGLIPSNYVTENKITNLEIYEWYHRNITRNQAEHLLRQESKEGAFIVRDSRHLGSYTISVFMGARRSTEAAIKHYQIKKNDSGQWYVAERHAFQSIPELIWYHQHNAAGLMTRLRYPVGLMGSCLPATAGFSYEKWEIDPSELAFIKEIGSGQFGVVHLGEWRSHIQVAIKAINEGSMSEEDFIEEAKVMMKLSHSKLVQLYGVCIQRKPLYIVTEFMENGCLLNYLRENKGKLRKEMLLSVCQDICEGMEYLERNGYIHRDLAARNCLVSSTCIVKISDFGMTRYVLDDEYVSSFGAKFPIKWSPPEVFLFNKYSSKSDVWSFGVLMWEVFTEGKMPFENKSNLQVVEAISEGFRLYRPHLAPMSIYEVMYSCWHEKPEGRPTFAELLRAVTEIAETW", "assay": "Inhibition of recombinant human Txk (256 to end residues) using GEEPLYWSFPAKK as substrate incubated for 40 mins in presence of [gamma33P]ATP by radiometric scintillation counting analysis"}, "[21]": {"target": "Serine/threonine-protein kinase ULK1 (Homo sapiens, UniProt O75385)", "sequence (O75385 whole entry, the tested form may be a part)": "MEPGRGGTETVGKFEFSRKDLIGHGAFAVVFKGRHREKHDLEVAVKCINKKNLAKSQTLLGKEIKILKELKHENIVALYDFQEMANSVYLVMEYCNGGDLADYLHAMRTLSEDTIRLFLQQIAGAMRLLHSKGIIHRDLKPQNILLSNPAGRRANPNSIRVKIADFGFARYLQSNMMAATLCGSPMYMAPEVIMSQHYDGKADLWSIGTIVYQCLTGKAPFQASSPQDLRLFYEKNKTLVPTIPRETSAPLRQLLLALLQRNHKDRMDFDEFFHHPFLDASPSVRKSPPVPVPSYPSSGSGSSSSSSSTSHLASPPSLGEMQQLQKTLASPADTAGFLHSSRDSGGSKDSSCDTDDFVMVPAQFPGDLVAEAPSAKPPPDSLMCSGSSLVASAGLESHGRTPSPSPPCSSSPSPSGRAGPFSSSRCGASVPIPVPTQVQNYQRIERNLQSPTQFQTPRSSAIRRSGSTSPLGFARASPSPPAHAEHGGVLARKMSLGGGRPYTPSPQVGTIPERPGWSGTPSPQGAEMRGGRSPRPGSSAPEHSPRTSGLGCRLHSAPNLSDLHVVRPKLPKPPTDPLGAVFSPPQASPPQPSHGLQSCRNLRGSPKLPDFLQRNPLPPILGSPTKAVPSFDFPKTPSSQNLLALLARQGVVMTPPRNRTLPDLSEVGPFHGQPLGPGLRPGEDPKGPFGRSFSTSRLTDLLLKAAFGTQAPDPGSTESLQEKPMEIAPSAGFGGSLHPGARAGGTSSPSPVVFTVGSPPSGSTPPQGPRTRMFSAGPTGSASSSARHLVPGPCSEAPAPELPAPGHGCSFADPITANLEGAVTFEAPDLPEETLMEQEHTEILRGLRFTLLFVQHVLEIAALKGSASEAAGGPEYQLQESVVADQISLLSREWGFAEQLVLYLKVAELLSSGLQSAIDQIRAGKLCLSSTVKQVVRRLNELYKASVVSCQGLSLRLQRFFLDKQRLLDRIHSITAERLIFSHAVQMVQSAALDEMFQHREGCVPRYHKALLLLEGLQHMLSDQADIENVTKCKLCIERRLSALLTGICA", "assay": "Inhibition of recombinant human ULK1 (1 to 314 residues) using casein as substrate incubated for 40 mins in presence of [gamma33P]ATP by radiometric scintillation counting analysis"}, "Wee1-like protein kinase": {"target": "Wee1-like protein kinase (Homo sapiens, UniProt P30291)", "assay": "Inhibition of recombinant human WEE1 (214 to end residues) using LSNLYHQGKFLQT as substrate incubated for 40 mins in presence of [gamma33P]ATP by radiometric scintillation counting analysis"}, "[22]": {"assay": "Inhibition of recombinant full-length human ATR/ATRIP M211T mutant using GST-cMyc-p53 as substrate incubated for 40 mins by fluorescence assay"}}, "data": [{"smiles": "CN(C)c1ccc(C(=O)Nc2cccc(NC(=O)COc3ccc4c(=O)ccoc4c3)c2)cc1", "values": [{"measurement": "IC50", "setting": "[1]", "value": 0.66, "unit": "µM"}, {"measurement": "IC50", "setting": "CDK7/Cyclin H/MNAT1", "value": "> 10", "unit": "µM"}, {"measurement": "IC50", "setting": "[2]", "value": "> 10", "unit": "µM"}, {"measurement": "IC50", "setting": "[3]", "value": "> 10", "unit": "µM"}, {"measurement": "IC50", "setting": "[4]", "value": "> 10", "unit": "µM"}, {"measurement": "IC50", "setting": "[5]", "value": "> 10", "unit": "µM"}, {"measurement": "IC50", "setting": "[6]", "value": "> 10", "unit": "µM"}, {"measurement": "IC50", "setting": "[7]", "value": "> 10", "unit": "µM"}, {"measurement": "IC50", "setting": "[8]", "value": "> 10", "unit": "µM"}, {"measurement": "IC50", "setting": "[9]", "value": "> 10", "unit": "µM"}, {"measurement": "IC50", "setting": "[10]", "value": "> 10", "unit": "µM"}, {"measurement": "IC50", "setting": "Misshapen-like kinase 1", "value": "> 10", "unit": "µM"}, {"measurement": "IC50", "setting": "[11]", "value": "> 10", "unit": "µM"}, {"measurement": "IC50", "setting": "[12]", "value": "> 10", "unit": "µM"}, {"measurement": "IC50", "setting": "[13]", "value": "> 10", "unit": "µM"}, {"measurement": "IC50", "setting": "[14]", "value": "> 10", "unit": "µM"}, {"measurement": "IC50", "setting": "[15]", "value": "> 10", "unit": "µM"}, {"measurement": "IC50", "setting": "[16]", "value": "> 10", "unit": "µM"}, {"measurement": "IC50", "setting": "[17]", "value": "> 10", "unit": "µM"}, {"measurement": "IC50", "setting": "[18]", "value": "> 10", "unit": "µM"}, {"measurement": "IC50", "setting": "[19]", "value": "> 10", "unit": "µM"}, {"measurement": "IC50", "setting": "TGF-beta receptor type-1", "value": "> 10", "unit": "µM"}, {"measurement": "IC50", "setting": "[20]", "value": "> 10", "unit": "µM"}, {"measurement": "IC50", "setting": "[21]", "value": "> 10", "unit": "µM"}, {"measurement": "IC50", "setting": "Wee1-like protein kinase", "value": "> 10", "unit": "µM"}, {"measurement": "IC50", "setting": "[22]", "value": "> 10", "unit": "µM"}]}]}
